Here are results for 11 compounds from ChEMBL document CHEMBL1201862, “PubChem BioAssay data set” (2004).

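Cells were grown in 96-well plates and exposed to each compound for 48 hours at five concentrations; endpoints were interpolated linearly between bracketing concentrations, or set to the highest concentration if not reached. The concentration for 50% growth inhibition is given as GI50.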 Active and inactive are the calls of the source. No stated cut-off is given here; in the data, active = GI50 up to about 1.1 µM and inactive = higher. Where only a bound is given, the exact number is not on record here.

Among the test systems are UACC-62; HT-29; UO-31; SK-MEL-2; SK-MEL-5; OVCAR-4; HL-60; DMS-273; KM12; HCT-15; HCT-116; EKVX; UACC-257; SF-268; RPMI-8226; SNB-75; CAKI-1; SF-295.
Common to all, as to assay: NCI anticancer screen, dose series, 48 h

As to `O=Cc1ccccc1OCCOc1cc(OCCOc2ccccc2C=O)c(OCCOc2ccccc2C=O)cc1OCCOc1ccccc1C=O`, the GI50 in the test with UACC-62 is > 100 µM (inactive); in the test on HT-29, > 100 µM (inactive); in the test on UO-31, > 52.8 µM (inactive); in the test with SK-MEL-2 it was 44.9 µM (inactive); in the test with SK-MEL-5, > 100 µM (inactive); with OVCAR-4, 39.9 µM (inactive). Besides, the GI50 in the test with HL-60 is > 78.2 µM (inactive); in the test with DMS-273, 52.2 µM (inactive); in the test with KM12 it was > 100 µM (inactive); with HCT-15 it was over 66.2 µM; in the test with HCT-116 it was 21.9 µM (inactive); with EKVX, 32.1 µM (inactive). The GI50 was > 100 µM (inactive) in the test with UACC-257; 52.1 µM (inactive) with SF-268; 90.6 µM (inactive) in the test with RPMI-8226; 8.07 µM (inactive) in the test with SNB-75; > 70.6 µM (inactive) in the test on CAKI-1.
With `N#CC(C(=O)CCC(=O)Nc1cccc(C(F)(F)F)c1)c1ccccc1` (stereo not drawn), the GI50 with UACC-62, in the test with HT-29, with UO-31, with SK-MEL-2, in the test on SK-MEL-5 and in the test with OVCAR-4 was > 100 µM (inactive) throughout. In addition, the GI50 is > 100 µM (inactive) in the test with HL-60; > 100 µM (inactive) with DMS-273; > 100 µM (inactive) with KM12; over 100 µM with HCT-15; > 100 µM (inactive) with SF-295; > 100 µM (inactive) in the test on HCT-116. The GI50 in the test on EKVX, with UACC-257, in the test with SF-268, in the test on RPMI-8226, with SNB-75 and in the test on CAKI-1 was > 100 µM (inactive) in each case.
On to `CCO/C([O-])=C(/C=O)[n+]1c(C)n(C)c2ccccc21`, for which the GI50 in the test with UACC-62, in the test on HT-29, in the test on UO-31, with SK-MEL-2, in the test with SK-MEL-5 and in the test with OVCAR-4 was > 100 µM (inactive) in each case. Moreover, the GI50 was > 100 µM (inactive) in the test with HL-60; > 100 µM (inactive) in the test on DMS-273; > 100 µM (inactive) in the test on KM12; over 100 µM in the test with HCT-15; > 100 µM (inactive) with SF-295; > 100 µM (inactive) in the test on HCT-116. Moreover, the GI50 in the test on EKVX, with UACC-257, in the test on SF-268, in the test on RPMI-8226, in the test on SNB-75 and in the test with CAKI-1 was > 100 µM (inactive) throughout.
`CN(C)CCNC(=O)c1cc([N+](=O)[O-])cc2ccc(-c3ccccc3)nc12`: the GI50 in the test on UACC-62 is 4.62 µM (inactive); in the test on HT-29, 3.85 µM (inactive); with UO-31 it was 2.9 µM (inactive); in the test on SK-MEL-2, 19.3 µM (inactive); in the test with SK-MEL-5 it was 4.7 µM (inactive); in the test with OVCAR-4, 5.55 µM (inactive). Also, the GI50 was 7.29 µM (inactive) in the test with HL-60; 5.62 µM (inactive) in the test on DMS-273; 7.94 µM (inactive) in the test on KM12; 7.26 µM in the test on HCT-15; 8.79 µM (inactive) in the test with SF-295; 3.23 µM (inactive) in the test with HCT-116. In addition, the GI50 is 24.7 µM (inactive) with EKVX; 5.75 µM (inactive) with UACC-257; 7.91 µM (inactive) with SF-268; 17.7 µM (inactive) in the test with RPMI-8226; 5.64 µM (inactive) in the test on SNB-75; 10 µM (inactive) in the test on CAKI-1.
As to `c1ccc(C2=NOC3C4CCC(C4)C23)cc1` (stereo not drawn), the GI50 in the test on UACC-62, in the test on HT-29, with UO-31, in the test with SK-MEL-2, in the test with SK-MEL-5 and with OVCAR-4 was > 100 µM (inactive) throughout. The GI50 in the test with HL-60 is > 100 µM (inactive); in the test with DMS-273, > 100 µM (inactive); with KM12, > 100 µM (inactive); with HCT-15, over 100 µM; in the test with SF-295, > 100 µM (inactive); in the test with HCT-116, > 100 µM (inactive). Further, the GI50 with EKVX is > 100 µM (inactive); with UACC-257, > 100 µM (inactive); in the test on SF-268, > 100 µM (inactive); in the test with RPMI-8226, > 100 µM (inactive); in the test on SNB-75 it was > 100 µM (inactive); with CAKI-1, < 0.01 µM (active).
Consider `O=C(CC1(O)C(=O)Nc2ccccc21)c1ccc(O)cc1O` (stereo not drawn), for which the GI50 in the test on UACC-62, in the test on HT-29, with UO-31, in the test with SK-MEL-2, with SK-MEL-5 and in the test on OVCAR-4 was > 100 µM (inactive) throughout. The GI50 with HL-60 was > 100 µM (inactive); in the test with DMS-273, > 100 µM (inactive); in the test on HCT-15, over 100 µM; with SF-295, > 100 µM (inactive); in the test with HCT-116, > 100 µM (inactive); in the test with EKVX it was > 100 µM (inactive). Moreover, the GI50 in the test with UACC-257, in the test with SF-268, in the test with RPMI-8226, with SNB-75 and in the test with CAKI-1 was > 100 µM (inactive) each time.
`CC(=O)NC(CCCCN(Cc1ccccc1)C(=O)NCCCl)C(=O)NCc1ccccc1` (stereo not drawn): the GI50 in the test with UACC-62, in the test on HT-29, in the test with UO-31, in the test with SK-MEL-2, in the test on OVCAR-4 and with HL-60 was > 100 µM (inactive) throughout. In addition, the GI50 in the test on DMS-273 is > 100 µM (inactive); in the test on KM12, > 100 µM (inactive); in the test with HCT-15, over 100 µM; with SF-295 it was > 100 µM (inactive); in the test with HCT-116 it was > 100 µM (inactive); in the test with EKVX, > 100 µM (inactive). Further, the GI50 with UACC-257, in the test with SF-268, in the test on RPMI-8226, in the test with SNB-75 and with CAKI-1 was > 100 µM (inactive) throughout.
Regarding `COC(=O)/C(=N/NC(N)=O)C(C(=O)OC)C(=O)C(=O)Nc1ccc(Cl)cc1` (stereo not drawn), the GI50 in the test on UACC-62, in the test with HT-29, with UO-31, with SK-MEL-2, with SK-MEL-5 and in the test with OVCAR-4 was > 100 µM (inactive) in each case. Moreover, the GI50 is > 76.2 µM (inactive) in the test with HL-60; > 100 µM (inactive) in the test with DMS-273; > 100 µM (inactive) with KM12; over 86.5 µM in the test with HCT-15; > 100 µM (inactive) with SF-295; > 70.6 µM (inactive) in the test on HCT-116. In addition, the GI50 in the test on EKVX, in the test on UACC-257, with RPMI-8226, in the test on SNB-75 and with CAKI-1 was > 100 µM (inactive) throughout.
In the case of `ClC1c2ccccc2C2(c3ccccc3)OOC1(c1ccccc1)O2` (stereo not drawn), the GI50 is 1.87 µM (inactive) with UACC-62; 2 µM (inactive) in the test with HT-29; 1.69 µM (inactive) with UO-31; 1.94 µM (inactive) with SK-MEL-2; 1.51 µM (inactive) in the test on SK-MEL-5; 1.48 µM (inactive) with OVCAR-4. For the same compound, the GI50 is 0.136 µM (active) in the test on HL-60; 1.52 µM (inactive) with DMS-273; 1.77 µM (inactive) with KM12; 1.53 µM in the test with HCT-15; 2.62 µM (inactive) in the test with SF-295; 2.18 µM (inactive) in the test with EKVX. The GI50 in the test on UACC-257 is 1.99 µM (inactive); with SF-268 it was 1.97 µM (inactive); in the test on RPMI-8226 it was 0.716 µM (active); with SNB-75, 1.77 µM (inactive); in the test with CAKI-1, 2.37 µM (inactive).
Take `CCCCCCCCCC(=O)OCC1OC(n2cc(F)c(=O)[nH]c2=O)C(N)C(OC(=O)CCCCCCCCC)C1O` (stereo not drawn): the GI50 is 17.9 µM (inactive) with UACC-62; 17.5 µM (inactive) with HT-29; 21.6 µM (inactive) in the test with UO-31; 15.5 µM (inactive) in the test with SK-MEL-2; 22.6 µM (inactive) in the test on SK-MEL-5; 15.8 µM (inactive) in the test with OVCAR-4. The GI50 with HL-60 was 23.3 µM (inactive); in the test with DMS-273 it was 20.4 µM (inactive); in the test with KM12, 19.1 µM (inactive); in the test with HCT-15, 18.2 µM; in the test on SF-295, 17.8 µM (inactive); in the test with HCT-116 it was 18.2 µM (inactive). The GI50 with EKVX was 18.2 µM (inactive); in the test with UACC-257, 20 µM (inactive); in the test on SF-268 it was 20.2 µM (inactive); in the test with RPMI-8226, 21.5 µM (inactive); in the test with SNB-75, 16.3 µM (inactive); in the test on CAKI-1, 38.2 µM (inactive).
`CC(=O)NC1=C(C)C(=O)c2c(nc3n2CCC3O)C1=N` (stereo not drawn): the GI50 is 4.71 µM (inactive) in the test on UACC-62; 17.6 µM (inactive) in the test with HT-29; 22.9 µM (inactive) with UO-31; 9.68 µM (inactive) in the test on SK-MEL-2; 13 µM (inactive) in the test with SK-MEL-5; 4.09 µM (inactive) in the test with OVCAR-4. Moreover, the GI50 is 4.49 µM (inactive) in the test on HL-60; 17.8 µM (inactive) with DMS-273; 18.5 µM (inactive) in the test on KM12; 19.2 µM in the test with HCT-15; 19.3 µM (inactive) in the test with SF-295; 2.39 µM (inactive) in the test with HCT-116. Besides, the GI50 in the test on EKVX was 21.1 µM (inactive); in the test with UACC-257, 3.9 µM (inactive); in the test on SF-268, 10.3 µM (inactive); in the test on RPMI-8226 it was > 100 µM (inactive); in the test on SNB-75 it was 26.2 µM (inactive); with CAKI-1 it was 13.4 µM (inactive).
